Results taken from patent US11850213B2, “Ophthalmic compositions of rifamycins and uses thereof” (AMD THERAPEUTICS LLC, priority 2014, dated 2023).
Values after ≈ are worked out from the molar mass of the structure shown. Where two headings read alike, the source gives them in different places.

Key:
[1] = Rabbit, 0.5% 50 microL, 250 micro g, Sigurdsson et al (2007); cited from earlier work
[2] = Retina exposure of rifampicin after subcutaneous injection, LC/MS; format: in vivo, Sprague-Dawley rats; conditions: male, Sprague-Dawley, rat, SC injection 20 mg/Kg (Example 6A), n = 4
Protocol: At time points of 1 hr, 3 hr, and 7 hr after the SC injection, retina tissues were extracted from the rats under a dissection microscope. In addition, “Non-treatment” negative control was taken, and retina was extracted from two rats without any treatment. Retinas were placed in a 1.5 ml microcentrifuge tubes (1 retina/tube), and they were extensively washed by DPBS. After the washing procedure, retina tissue in a microcentrifuge tube was frozen in dry ice, and it was stored for quantification by LC/MS analysis. […] Amounts detected in retina by the SC injection were equivalent to those delivered by the eye drop application (See Table 3).

[3] = Solubility of AMD101 in H2O; format: physicochemical; conditions: water
Protocol: In H2O, the AMD101 can dissolve at approximately 1.4 mg/ml only. However, the concentration was increased as provided herein employing suitable excipients. Those formulations are stable for weeks.

[4] = Dose-response study, retina exposure after 0.25% and 0.5% rifampicin eye drops, LC/MS; format: in vivo, Sprague-Dawley rats; conditions: male, Sprague-Dawley, rat, topical
Protocol: 15 microL of eye drop formulations which are presented as Example 1A and 6A listed in Table 1 and Table 2, respectively, were used to dose the compound to a single eye of a rat. […] In 1 hr after the eye drop application, retina tissues were extracted from the rats under a dissection microscope. In addition, “Non-treatment” negative control was taken, and retina was extracted from a single rat without any treatment. Retinas were placed in a 1.5 ml microcentrifuge tubes (1 retina/tube), and they were extensively washed by DPBS. After the washing procedure, retina tissue in a microcentrifuge tube was frozen in dry ice, and it was stored for quantification by LC/MS analysis.

[5] = Retina exposure of rifampicin after topical eye drops (3 or 10 drops), LC/MS; format: in vivo, Sprague-Dawley rats; conditions: Rat, 0.25%
Protocol: The remaining two rats received the same applications, but 10 drops, to each eye under isoflurane sedation. A single drop contained 5 micro L of the formulation, and applications of each drop had 30 min interval. After the eye drop application, retinas were extracted under a dissection microscope. In addition, “Non-treatment” negative control was taken, and retina was extracted from two rats without any treatment. Retinas were placed in a 1.5 ml microcentrifuge tubes (1 retina/tube), and they were extensively washed by DPBS. After the washing procedure, retina tissue in a microcentrifuge tube was frozen in dry ice, and it was stored for quantification by LC/MS analysis.

[6] = PK study, retina exposure after 0.25% rifampicin eye drop, LC/MS; format: in vivo, Sprague-Dawley rats; conditions: male, Sprague-Dawley, 37.5 micro gram, rat
Protocol: 15 microL of an eye drop formulation which is presented as Example 1A listed in Table 1 was used to dose the compound to a single eye of a rat. […] At time points of 1 hr, 3 hr, and 7 hr after the eye drop application, retina tissues were extracted from the rats under a dissection microscope. In addition, “Non-treatment” negative control was taken, and retina was extracted from a single rat without any treatment. Retinas were placed in a 1.5 ml microcentrifuge tubes (1 retina/tube), and they were extensively washed by DPBS. After the washing procedure, retina tissue in a microcentrifuge tube was frozen in dry ice, and it was stored for quantification by LC/MS analysis.

concentration at 1 hr ([2]; 1 hr) [ng/g] | concentration at 3 hr ([2]; 3 hr) [ng/g] | concentration at 7 hr ([2]; 7 hr) [ng/g] | solubility [3] [µg/mL] | concentration at 1 hr ([4]; 37.5 micro gram) [ng/g] | concentration at 1 hr ([4]; 75 micro gram) [ng/g] | Drug amount detected in retina ([5]; 3 drops (15 microL, 37.5 micro g)) | Drug amount detected in retina ([5]; 10 drops (50 microL, 125 micro g)) | Tmax ([6]; topical or ocular, 0.25% eye drop 15 microL) [h] | concentration at 1 hr ([6]; topical, 0.25% eye drop 15 microL (Example 1A), 1 hr, n = 4) [ng/g] | concentration at 3 hr ([6]; topical, 0.25% eye drop 15 microL (Example 1A), 3 hr, n = 4) [ng/g] | concentration at 7 hr ([6]; topical, 0.25% eye drop 15 microL (Example 1A), 7 hr, n = 4) [ng/g] | SMILES | Drug amount detected in retina [1]
– | – | – | – | – | – | – | – | – | – | – | – | C[C@@H]1C[C@H]2[C@@H]3CCC4=CC(=O)C=C[C@]4(C)[C@@]3(F)[C@@H](O)C[C@]2(C)[C@@]1(O)C(=O)CO [Dexamethasone] | ~33 ng/g retina ng/g retina tissue
2660 | 3860 | 2520 | ~1400 (≈ 1700 µM) | 1580 | 6070 | ~1,288 ng/g retina ng/g retina tissue | ~2,939 ng/g retina ng/g retina tissue | ~1 | 1580 | 1150 | 104 | CO[C@H]1/C=C/O[C@@]2(C)Oc3c(C)c(O)c4c(O)c(c(/C=N/N5CCN(C)CC5)c(O)c4c3C2=O)NC(=O)/C(C)=C\C=C\[C@H](C)[C@H](O)[C@@H](C)[C@@H](O)[C@@H](C)[C@H](OC(C)=O)[C@@H]1C [Rifampicin] | –
